Assay results reported in ChEMBL document CHEMBL1201862, “PubChem BioAssay data set” (2004).
Structures can show the parent of a compound that is named as a salt. Active and inactive are the calls of the source.

Key:
[1] = molecular target: NACHT, LRR and PYD domains-containing protein 1 (Homo sapiens, UniProt Q9C000); assay: NALP1 inhibitors in yeast, dose response, luminescent (AID 488860); format: functional
[2] = C. albicans growth with fluconazole, confirmation, fluorescence, retest (AID 2467); format: functional, cell-based
Saccharomyces cerevisiae = assay: NALP1 inhibitor project selectivity study, Caspase-1/ASC signal blockade IC50 in S. cerevisiae (AID 488863); format: functional, organism-based
[3] = NIH-3T3 fibroblast cytotoxicity, dose response, cytotoxicity control, cell-based, fluorescence, Alamar Blue, secondary assay (AID 2327); format: functional;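 further: NIH-3T3 mouse fibroblasts cultured with fluconazole at 8 µg/mL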
[4] = molecular target: ATP-dependent molecular chaperone HSP82 (Candida albicans (strain WO-1) (Yeast), UniProt C4YTQ8); assay: loss of DOC-induced GRE-beta-galactosidase reporter signal, dose response, Hsp90 inhibitor project, S. cerevisiae, luminescence (AID 2400); format: functional, cell-based;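 further: beta-galactosidase luminescence from glucocorticoid response element reporter as proxy for Hsp90 function; inhibitor potency where signal loss means Hsp90 inhibition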
Sequence of ATP-dependent molecular chaperone HSP82 (C4YTQ8 whole entry): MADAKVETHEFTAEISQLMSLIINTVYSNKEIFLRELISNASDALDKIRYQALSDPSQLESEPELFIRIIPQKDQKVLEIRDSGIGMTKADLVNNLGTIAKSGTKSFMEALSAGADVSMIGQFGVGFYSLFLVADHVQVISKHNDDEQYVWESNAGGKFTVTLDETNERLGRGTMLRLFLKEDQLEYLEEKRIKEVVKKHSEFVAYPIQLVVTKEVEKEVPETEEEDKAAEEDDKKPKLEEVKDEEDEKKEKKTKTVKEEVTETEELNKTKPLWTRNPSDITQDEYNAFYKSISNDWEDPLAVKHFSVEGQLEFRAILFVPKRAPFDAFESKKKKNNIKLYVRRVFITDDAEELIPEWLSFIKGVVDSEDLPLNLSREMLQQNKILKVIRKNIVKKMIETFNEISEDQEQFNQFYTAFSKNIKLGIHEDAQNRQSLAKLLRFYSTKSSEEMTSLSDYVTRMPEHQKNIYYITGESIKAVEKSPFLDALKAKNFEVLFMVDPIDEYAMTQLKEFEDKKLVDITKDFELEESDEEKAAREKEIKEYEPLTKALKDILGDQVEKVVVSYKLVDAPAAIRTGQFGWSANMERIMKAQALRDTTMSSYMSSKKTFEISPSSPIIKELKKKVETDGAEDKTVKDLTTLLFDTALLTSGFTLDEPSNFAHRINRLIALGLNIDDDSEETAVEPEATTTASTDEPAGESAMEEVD

[5] = molecular target: T1, Serine/threonine-protein phosphatase (Candida dubliniensis (strain CD36 / CBS 7987 / NCPF 3949 / NRRLY-17841) (Yeast), UniProt B9W6M3); assay: calcineurin pathway inhibitors in yeast reporter, dose response, S. cerevisiae, CDRE-lacZ, luminescence, secondary (AID 2388); format: functional, cell-based;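 further: yeast reporter cells carrying a calcineurin-responsive lacZ construct stimulated with calcium chloride; luminescent beta-galactosidase reporter signal in whole cells rather than isolated phosphatase activity; potency for inhibition where a drop in reporter signal means calcineurin blockade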
T1 sequence (B9W6M3 whole entry): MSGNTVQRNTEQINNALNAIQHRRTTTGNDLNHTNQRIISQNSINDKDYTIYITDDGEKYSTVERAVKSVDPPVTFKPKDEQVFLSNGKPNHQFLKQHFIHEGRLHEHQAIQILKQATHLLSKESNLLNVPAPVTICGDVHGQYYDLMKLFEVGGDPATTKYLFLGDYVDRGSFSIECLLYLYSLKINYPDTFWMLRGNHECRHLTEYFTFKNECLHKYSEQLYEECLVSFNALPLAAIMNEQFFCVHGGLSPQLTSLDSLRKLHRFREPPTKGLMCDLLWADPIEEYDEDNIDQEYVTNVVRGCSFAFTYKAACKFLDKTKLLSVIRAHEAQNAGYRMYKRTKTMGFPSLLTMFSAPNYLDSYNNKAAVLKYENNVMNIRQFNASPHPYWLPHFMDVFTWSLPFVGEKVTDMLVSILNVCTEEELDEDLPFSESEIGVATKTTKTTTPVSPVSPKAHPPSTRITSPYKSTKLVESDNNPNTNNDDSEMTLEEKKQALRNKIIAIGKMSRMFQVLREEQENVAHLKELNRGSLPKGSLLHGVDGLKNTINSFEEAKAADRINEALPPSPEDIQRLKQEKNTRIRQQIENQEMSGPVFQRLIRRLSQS

[6] = molecular target: T2, Alkaline phosphatase, tissue-nonspecific isozyme (Homo sapiens, UniProt P05186); assay: human TNAP enzyme inhibitors, SAR follow-up, biochemical, luminescent, dose response (AID 1056)
T2 sequence (P05186 whole entry): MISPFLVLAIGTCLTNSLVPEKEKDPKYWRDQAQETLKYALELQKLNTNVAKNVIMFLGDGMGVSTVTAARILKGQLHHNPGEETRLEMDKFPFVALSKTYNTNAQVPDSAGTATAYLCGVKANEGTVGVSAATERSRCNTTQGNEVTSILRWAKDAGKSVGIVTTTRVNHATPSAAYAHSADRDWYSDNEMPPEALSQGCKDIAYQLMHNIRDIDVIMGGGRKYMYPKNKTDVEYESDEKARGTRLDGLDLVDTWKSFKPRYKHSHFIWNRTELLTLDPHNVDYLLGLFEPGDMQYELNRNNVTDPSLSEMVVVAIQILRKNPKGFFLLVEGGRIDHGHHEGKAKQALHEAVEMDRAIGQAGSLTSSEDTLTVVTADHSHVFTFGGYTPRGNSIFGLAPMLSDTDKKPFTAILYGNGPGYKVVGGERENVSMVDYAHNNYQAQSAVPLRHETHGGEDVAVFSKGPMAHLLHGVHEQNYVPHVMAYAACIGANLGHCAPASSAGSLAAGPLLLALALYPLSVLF

[7] = molecular target: Alkaline phosphatase, placental type (Homo sapiens, UniProt P05187); assay: PLAP enzyme inhibitors, confirmation, biochemical, luminescence (AID 1512); format: functional
[8] = molecular target: Glyceraldehyde-3-phosphate dehydrogenase (Homo sapiens, UniProt P04406)
Sequence of Glyceraldehyde-3-phosphate dehydrogenase (P04406 whole entry): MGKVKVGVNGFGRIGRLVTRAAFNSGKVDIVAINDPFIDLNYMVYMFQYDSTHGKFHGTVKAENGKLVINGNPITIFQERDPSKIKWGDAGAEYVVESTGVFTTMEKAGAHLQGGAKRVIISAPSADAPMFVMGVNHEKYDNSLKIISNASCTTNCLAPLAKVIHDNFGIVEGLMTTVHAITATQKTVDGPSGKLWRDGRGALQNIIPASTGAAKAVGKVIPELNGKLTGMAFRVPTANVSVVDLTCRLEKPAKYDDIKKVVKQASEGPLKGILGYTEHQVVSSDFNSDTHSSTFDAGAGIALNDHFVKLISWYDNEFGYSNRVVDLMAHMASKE

[9] = molecular target: T3, Tyrosine-protein phosphatase non-receptor type 7 (Homo sapiens, UniProt P35236); assay: redox-dependent HePTP inhibition, mechanism study, biochemical, fluorescence (AID 2068); format: functional
T3 sequence (P35236 whole entry): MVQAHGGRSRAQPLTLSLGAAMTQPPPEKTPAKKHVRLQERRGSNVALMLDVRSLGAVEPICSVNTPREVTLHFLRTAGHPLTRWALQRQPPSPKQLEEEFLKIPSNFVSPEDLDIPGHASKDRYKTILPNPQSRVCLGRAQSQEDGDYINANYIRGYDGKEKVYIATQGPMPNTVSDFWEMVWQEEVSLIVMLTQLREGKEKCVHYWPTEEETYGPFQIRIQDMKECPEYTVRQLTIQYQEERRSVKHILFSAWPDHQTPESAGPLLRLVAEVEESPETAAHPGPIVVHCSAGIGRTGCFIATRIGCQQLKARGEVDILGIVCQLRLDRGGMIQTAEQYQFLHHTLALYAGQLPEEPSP

[10] = molecular target: T4, Dual specificity protein phosphatase 3 (Homo sapiens, UniProt P51452); assay: SAR VHR1 absorbance Assay for In Vitro dose response studies. [Related pubchem assays (depositor defined):AID1654, AID1661, AID1878, AID1992, AID2004]
T4 sequence (P51452 whole entry): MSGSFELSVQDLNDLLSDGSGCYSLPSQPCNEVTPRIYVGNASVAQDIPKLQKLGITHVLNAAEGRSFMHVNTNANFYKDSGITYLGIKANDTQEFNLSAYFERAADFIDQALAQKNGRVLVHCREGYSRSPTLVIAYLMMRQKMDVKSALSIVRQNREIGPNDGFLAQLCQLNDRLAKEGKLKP

[11] = molecular target: T5, Dual specificity protein phosphatase 6 (Rattus norvegicus, UniProt Q64346); format: functional;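 further: confirmatory in vitro dose-response testing of MKP-3 inhibition; recombinant His-tagged MKP-3 made in E. coli BL21 with OMFP substrate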
T5 sequence (Q64346 whole entry): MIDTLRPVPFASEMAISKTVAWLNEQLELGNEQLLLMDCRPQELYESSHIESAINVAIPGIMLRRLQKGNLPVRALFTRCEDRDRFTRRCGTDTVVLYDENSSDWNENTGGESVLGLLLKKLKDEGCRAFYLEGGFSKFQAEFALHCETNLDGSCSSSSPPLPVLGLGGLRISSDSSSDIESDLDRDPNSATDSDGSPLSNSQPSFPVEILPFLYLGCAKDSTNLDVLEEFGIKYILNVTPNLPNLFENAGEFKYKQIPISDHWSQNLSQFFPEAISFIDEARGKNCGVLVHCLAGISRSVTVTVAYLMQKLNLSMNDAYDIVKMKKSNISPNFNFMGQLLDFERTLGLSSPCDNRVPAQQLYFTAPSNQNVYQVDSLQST

[12] = molecular target: T4, Dual specificity protein phosphatase 3; assay: SAR VHR1 Fluorescent Assay for In Vitro dose response studies. [Related pubchem assays (depositor defined):AID1654, AID1661, AID1878, AID1992, AID2004, AID2070, AID2085]; format: functional
[13] = molecular target: T4, Dual specificity protein phosphatase 3; assay: SAR VHR1 Fluorescent Assay for In Vitro dose response studies Set 2. [Related pubchem assays (depositor defined):AID1654, AID1661, AID1878]; format: functional
HEK293 [14] = assay: optical interference in Abeta FP readout, dose response, artefact control for IDE activator project, biochemical, fluorescence polarization (AID 588442); format: functional, cell-based; conditions: Homo sapiens
Paired box protein Pax-8 = Paired box protein Pax-8 (Homo sapiens, UniProt Q06710); assay: inhibitors of PAX8-driven TPO luciferase reporter, dose response, RMG-I cells, cherry-pick (AID 687027); format: functional, cell-based;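 further: luciferase reporter driven by Pax8 target thyroperoxidase promoter measured by SteadyGlo luminescence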
Sequence of Paired box protein Pax-8 (Q06710 whole entry): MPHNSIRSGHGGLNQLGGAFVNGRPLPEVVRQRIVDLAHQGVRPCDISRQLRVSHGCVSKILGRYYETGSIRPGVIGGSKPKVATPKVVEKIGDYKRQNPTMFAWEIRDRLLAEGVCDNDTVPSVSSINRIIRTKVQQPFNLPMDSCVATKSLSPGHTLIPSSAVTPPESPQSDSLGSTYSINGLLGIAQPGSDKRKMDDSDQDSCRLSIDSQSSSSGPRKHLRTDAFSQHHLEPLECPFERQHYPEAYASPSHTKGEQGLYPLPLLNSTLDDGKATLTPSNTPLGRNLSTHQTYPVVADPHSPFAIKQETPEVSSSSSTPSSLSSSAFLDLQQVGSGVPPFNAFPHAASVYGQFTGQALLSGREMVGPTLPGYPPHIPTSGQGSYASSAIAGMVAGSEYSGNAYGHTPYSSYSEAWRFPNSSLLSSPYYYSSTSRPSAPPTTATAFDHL

HeLa = assay: HeLa cell cytotoxicity, dose response, cytotoxicity control, 24 h, cherry-picked samples (AID 504726); format: functional, cell-based; conditions: Homo sapiens;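 further: potency for cytotoxicity as loss of luminescence signal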
Nonstructural protein 1 = Nonstructural protein 1 (Influenza A virus, UniProt Q194T2); format: functional, Influenza A virus (A/California/07/2009(H1N1))
Sequence of Nonstructural protein 1 (Q194T2 whole entry): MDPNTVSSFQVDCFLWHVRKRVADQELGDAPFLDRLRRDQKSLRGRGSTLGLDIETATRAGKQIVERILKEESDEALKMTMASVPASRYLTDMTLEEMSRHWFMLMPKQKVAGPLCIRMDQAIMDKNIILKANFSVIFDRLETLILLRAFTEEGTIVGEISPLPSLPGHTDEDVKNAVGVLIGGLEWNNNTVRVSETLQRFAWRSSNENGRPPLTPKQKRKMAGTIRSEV

[15] = molecular target: Aryl hydrocarbon receptor (Homo sapiens, UniProt P35869); conditions: Potency;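 further: confirmatory quantitative high-throughput screen measuring activation of the AhR signaling pathway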
Insulin-degrading enzyme [16] = molecular target: T6, Insulin-degrading enzyme (Homo sapiens, UniProt P14735); assay: activators of recombinant IDE enzyme, dose response, counter-screen for IDE activator project, biochemical, fluorescence polarization (AID 588681)
T6 sequence (P14735 whole entry): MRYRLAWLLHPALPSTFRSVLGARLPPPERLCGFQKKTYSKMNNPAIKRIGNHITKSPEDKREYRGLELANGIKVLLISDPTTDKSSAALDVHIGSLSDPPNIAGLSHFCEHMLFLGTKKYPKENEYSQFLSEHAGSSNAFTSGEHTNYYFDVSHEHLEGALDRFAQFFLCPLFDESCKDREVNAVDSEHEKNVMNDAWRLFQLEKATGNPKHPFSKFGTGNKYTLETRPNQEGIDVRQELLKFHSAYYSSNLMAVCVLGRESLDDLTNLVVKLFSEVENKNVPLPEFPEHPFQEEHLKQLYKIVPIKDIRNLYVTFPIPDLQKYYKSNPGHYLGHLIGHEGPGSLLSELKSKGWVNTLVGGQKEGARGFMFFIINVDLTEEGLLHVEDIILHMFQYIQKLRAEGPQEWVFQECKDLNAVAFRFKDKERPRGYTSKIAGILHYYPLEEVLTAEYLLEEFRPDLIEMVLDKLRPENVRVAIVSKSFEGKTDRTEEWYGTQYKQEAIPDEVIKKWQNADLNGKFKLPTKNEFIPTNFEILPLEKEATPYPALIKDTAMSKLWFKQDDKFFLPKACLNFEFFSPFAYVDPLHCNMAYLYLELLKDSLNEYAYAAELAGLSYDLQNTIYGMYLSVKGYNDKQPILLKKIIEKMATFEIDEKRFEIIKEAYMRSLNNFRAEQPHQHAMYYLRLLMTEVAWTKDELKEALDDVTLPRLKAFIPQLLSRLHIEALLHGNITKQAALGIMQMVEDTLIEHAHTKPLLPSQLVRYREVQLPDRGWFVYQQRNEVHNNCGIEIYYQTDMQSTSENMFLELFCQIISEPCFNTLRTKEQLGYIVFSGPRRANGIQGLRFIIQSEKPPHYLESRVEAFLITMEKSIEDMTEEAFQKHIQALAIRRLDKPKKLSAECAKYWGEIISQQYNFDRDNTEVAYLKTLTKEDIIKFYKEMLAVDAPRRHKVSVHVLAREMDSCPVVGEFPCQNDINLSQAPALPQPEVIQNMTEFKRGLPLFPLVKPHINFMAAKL

ORF 73 = ORF 73 (Human herpesvirus 8, UniProt O40947); assay: inhibitors of C-LANA binding to LBS DNA, dose response, biochemical, fluorescence polarization, cherry-picked samples (AID 504725); parameters: species or system Human gammaherpesvirus 8;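 further: fluorescence polarization of a labeled DNA duplex reporting LANA DNA binding; potency is for inhibitors that block LANA binding to the DNA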
Sequence of ORF 73 (O40947 whole entry): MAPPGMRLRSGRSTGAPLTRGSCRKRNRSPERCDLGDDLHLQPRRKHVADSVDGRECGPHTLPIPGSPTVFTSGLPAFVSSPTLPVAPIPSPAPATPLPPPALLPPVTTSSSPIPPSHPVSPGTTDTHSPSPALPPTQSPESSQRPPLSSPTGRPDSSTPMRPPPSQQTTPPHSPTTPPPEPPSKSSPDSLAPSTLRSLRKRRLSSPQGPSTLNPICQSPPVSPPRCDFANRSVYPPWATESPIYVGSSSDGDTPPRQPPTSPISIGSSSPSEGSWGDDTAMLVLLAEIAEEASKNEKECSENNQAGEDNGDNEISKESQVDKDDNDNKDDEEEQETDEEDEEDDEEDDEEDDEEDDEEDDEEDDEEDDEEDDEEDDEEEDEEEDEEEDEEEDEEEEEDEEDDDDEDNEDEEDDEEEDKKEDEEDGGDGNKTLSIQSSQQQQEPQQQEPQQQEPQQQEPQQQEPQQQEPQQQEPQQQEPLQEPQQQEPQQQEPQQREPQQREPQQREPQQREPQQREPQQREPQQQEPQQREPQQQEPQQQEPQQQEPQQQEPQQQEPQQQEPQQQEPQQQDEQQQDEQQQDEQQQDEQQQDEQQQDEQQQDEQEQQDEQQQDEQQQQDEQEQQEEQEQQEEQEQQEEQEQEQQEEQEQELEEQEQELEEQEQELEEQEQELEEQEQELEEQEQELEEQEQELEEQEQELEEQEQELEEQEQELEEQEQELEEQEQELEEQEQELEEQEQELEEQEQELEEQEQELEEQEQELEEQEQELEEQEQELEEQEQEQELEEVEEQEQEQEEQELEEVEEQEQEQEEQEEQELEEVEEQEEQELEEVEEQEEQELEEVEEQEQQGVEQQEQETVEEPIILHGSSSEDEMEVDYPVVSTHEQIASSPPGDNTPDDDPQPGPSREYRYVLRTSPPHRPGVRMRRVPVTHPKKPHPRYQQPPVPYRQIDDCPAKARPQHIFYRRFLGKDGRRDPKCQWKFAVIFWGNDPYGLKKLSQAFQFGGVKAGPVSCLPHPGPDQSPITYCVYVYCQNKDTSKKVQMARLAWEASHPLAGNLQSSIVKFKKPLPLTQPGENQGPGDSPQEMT

fMet-Leu-Phe receptor = molecular target: T7, fMet-Leu-Phe receptor (Homo sapiens, UniProt P21462); assay: FPR ligands, dose response (AID 519); format: functional
T7 sequence (P21462 whole entry): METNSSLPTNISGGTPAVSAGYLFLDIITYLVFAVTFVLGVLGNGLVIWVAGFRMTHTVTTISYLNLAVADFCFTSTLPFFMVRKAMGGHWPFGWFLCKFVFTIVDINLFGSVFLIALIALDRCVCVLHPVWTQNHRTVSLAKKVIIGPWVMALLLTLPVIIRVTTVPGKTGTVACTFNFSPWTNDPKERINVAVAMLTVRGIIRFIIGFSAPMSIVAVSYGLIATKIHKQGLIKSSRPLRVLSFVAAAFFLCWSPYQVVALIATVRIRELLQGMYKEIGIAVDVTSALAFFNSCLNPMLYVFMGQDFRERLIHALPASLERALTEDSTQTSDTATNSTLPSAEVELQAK

14-3-3 protein gamma = 14-3-3 protein gamma (Homo sapiens, UniProt P61981); assay: modulators of 14-3-3 gamma client binding – dose response (AID 711); format: functional
Sequence of 14-3-3 protein gamma (P61981 whole entry): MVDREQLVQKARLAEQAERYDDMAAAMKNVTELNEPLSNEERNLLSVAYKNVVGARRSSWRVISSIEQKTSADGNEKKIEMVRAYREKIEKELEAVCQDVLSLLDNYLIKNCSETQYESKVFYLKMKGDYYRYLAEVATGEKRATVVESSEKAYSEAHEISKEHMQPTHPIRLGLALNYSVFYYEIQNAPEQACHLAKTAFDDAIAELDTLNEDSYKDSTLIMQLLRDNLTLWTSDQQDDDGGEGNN

HEK293 [17] = assay: HEK cell cytotoxicity by LDH release, dose response, cytotoxicity control for IDE activator project, fluorescence, HEK cells (AID 588440); format: functional, cell-based; conditions: Homo sapiens;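 further: cytotoxicity by LDH release measuring loss of membrane integrity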
Protein S100-A4 = Protein S100-A4 (Homo sapiens, UniProt P26447); assay: S100A4-myosin IIA binding inhibitor potency, dose response, biochemical, fluorescence polarization, cherry-picked hits (AID 687001); format: functional
Sequence of Protein S100-A4 (P26447 whole entry): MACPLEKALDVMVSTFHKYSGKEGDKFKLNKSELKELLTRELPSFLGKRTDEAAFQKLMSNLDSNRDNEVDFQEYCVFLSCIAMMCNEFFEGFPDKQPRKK

Insulin-degrading enzyme [18] = molecular target: T6, Insulin-degrading enzyme; assay: activators of endogenous IDE in HEK cells, dose response, cell-based, fluorescence polarization (AID 588439); format: functional
INS1 = assay: beta cell apoptosis inhibitors, cytokine rescue, dose response, luminescence, retest (AID 449756); format: functional, cell-based; conditions: Rattus norvegicus;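 further: cell death triggered by IL-1 beta plus TNF-alpha plus IFN-gamma mixture; protective hits raise ATP signal compared with cytokine alone wells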
Troponin, cardiac muscle = Troponin, cardiac muscle (Homo sapiens, UniProt P19429+P45379+P63316); assay: inhibitors of cardiac thin filament calcium sensitivity, dose response, biochemical, fluorescence, cardiac regulated thin filaments, triplicate IC50 (AID 504742); format: protein-complex assay

Sequence of NACHT, LRR and PYD domains-containing protein 1 (Q9C000 1-1212 limits assumed): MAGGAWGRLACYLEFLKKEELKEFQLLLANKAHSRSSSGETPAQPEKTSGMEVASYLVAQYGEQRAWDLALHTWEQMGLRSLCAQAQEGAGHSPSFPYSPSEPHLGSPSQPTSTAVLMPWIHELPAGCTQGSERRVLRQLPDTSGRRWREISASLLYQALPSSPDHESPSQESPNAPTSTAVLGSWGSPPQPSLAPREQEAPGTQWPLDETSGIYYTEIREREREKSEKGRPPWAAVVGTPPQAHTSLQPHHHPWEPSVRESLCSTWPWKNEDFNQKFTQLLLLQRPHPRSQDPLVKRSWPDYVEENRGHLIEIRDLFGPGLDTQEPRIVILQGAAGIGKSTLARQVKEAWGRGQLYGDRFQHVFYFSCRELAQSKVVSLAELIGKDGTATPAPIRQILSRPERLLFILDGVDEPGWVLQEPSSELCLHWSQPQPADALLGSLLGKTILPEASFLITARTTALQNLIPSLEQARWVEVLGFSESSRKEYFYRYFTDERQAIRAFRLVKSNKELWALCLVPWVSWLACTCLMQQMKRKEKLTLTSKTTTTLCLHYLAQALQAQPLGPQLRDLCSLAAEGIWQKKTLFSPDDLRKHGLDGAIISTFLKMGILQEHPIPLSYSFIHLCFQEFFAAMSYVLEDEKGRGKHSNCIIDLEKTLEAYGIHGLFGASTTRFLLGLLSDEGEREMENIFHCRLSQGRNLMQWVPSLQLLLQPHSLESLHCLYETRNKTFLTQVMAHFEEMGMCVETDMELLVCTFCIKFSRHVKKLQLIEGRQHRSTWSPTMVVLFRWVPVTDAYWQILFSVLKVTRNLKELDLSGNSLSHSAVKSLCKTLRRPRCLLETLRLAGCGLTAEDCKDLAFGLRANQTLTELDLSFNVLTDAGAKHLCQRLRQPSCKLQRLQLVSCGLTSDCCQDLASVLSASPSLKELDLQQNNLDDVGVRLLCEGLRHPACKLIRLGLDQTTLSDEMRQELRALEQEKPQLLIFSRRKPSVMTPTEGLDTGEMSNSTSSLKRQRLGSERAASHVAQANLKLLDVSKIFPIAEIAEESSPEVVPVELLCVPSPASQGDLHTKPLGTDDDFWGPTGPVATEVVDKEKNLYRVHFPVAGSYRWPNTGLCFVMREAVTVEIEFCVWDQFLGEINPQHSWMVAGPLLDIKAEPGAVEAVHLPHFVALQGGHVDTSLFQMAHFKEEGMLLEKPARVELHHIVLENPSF
Sequence of NACHT, LRR and PYD domains-containing protein 1 (Q9C000 1213-1473 limits assumed): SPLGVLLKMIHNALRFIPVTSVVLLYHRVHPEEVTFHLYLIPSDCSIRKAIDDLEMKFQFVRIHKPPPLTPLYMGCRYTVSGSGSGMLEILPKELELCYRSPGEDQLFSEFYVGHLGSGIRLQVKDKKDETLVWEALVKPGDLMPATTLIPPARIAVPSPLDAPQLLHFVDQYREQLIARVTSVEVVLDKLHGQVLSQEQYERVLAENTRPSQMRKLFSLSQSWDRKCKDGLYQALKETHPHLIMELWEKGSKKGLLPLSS

Cc1cc2ccccn2c1C(C[N+](=O)[O-])c1c(F)cccc1Cl (stereo not drawn)
IC50 [1]: 7.92 µM (active) | EC50 [2]: 0.421 µM (active) | IC50 (Saccharomyces cerevisiae): 6.44 µM (active) | EC50 [3]: > 160 µM (inactive) | EC50 [4]: 4.47 µM (active) | EC50 [5]: 45.4 µM (active)

COc1ccc(-c2cc(-c3ccc4ccccc4c3O)n[nH]2)cc1
IC50 [6]: > 100 µM (inactive) | IC50 [7]: > 100 µM (inactive) | IC50 [8]: > 100 µM (not active)

NS(=O)(=O)c1cc(C(=O)NC2CCCc3ccccc32)ccc1Cl (stereo not drawn)
IC50 [9]: > 100 µM (inactive) | IC50 [10]: > 100 µM (inactive) | IC50 [11]: > 100 µM (inactive) | IC50 [12]: > 100 µM (inactive) | IC50 [13]: > 100 µM (inactive)

COc1cccc2c1C(=O)c1c(O)c3c(c(O)c1C2=O)C[C@@](O)(C(C)=O)C[C@@H]3O[C@H]1C[C@H](N)[C@H](O)[C@H](C)O1 [DAUNORUBICIN HYDROCHLORIDE]
EC50 (HEK293 [14]): > 54.7 µM (inactive) | AC50 (Paired box protein Pax-8): 1.55 µM (active) | AC50 (HeLa): 1.73 µM (active) | IC50 (Nonstructural protein 1): 32.7 µM (active) | AC50 [15]: 12.6 µM (inconclusive) | EC50 (Insulin-degrading enzyme [16]): > 54.7 µM (inactive) | AC50 (ORF 73): 2.36 µM (active) | Ki (fMet-Leu-Phe receptor): > 66.7 µM (inactive) | IC50 (14-3-3 protein gamma): < 0.781 µM (active) | IC50 (HEK293 [17]): 17.7 µM (inactive) | AC50 (Protein S100-A4): 0.235 µM (active) | EC50 (Insulin-degrading enzyme [18]): > 54.7 µM (inactive)

COc1cccc(/C=N/Nc2nc3ccccc3n3cnnc23)c1O
AC50 (INS1): 1.84 µM (active) | IC50 (Troponin, cardiac muscle): 7.6 µM (active)
